Test results from the NIST ThermoML archive (doi:10.1016/j.jct.2017.08.004).

Experiment: molar heat capacity at constant pressure
Conditions: 101.33 kPa, Small sample (50 mg) DSC

O[C@H]1[C@H](O)[C@@H](O)[C@H](O)[C@@H](O)[C@H]1O [cis-1,2,3,5-trans-4,6-cyclohexanehexol]
Conditions	molar heat capacity at constant pressure [J/K/mol]
465.15 K, Crystal	351.55
466.15 K, Crystal	352.42
467.15 K, Crystal	353.08
468.15 K, Crystal	353.97
469.15 K, Crystal	354.86
470 K, Crystal	355.62
470.15 K, Crystal	355.7
471.15 K, Crystal	356.6
472.15 K, Crystal	357.44
473.15 K, Crystal	358.19
474.15 K, Crystal	359.01
475 K, Crystal	360.31
475.15 K, Crystal	359.91
476.15 K, Crystal	360.87
477.15 K, Crystal	361.75
478.15 K, Crystal	362.53
479.15 K, Crystal	363.44
480 K, Crystal	365.32
480.15 K, Crystal	364.51
481.15 K, Crystal	365.73
482.15 K, Crystal	366.73
485 K, Crystal	370.71
513.05 K, Liquid	508.49
513.15 K, Liquid	508.52
514.15 K, Liquid	508.4
515 K, Liquid	506.99
515.15 K, Liquid	507.66
516.15 K, Liquid	505.87
517.15 K, Liquid	506.07
518.15 K, Liquid	506.35
519.15 K, Liquid	506.73
520 K, Liquid	507.22
520.15 K, Liquid	506.91
521.15 K, Liquid	507.17
522.15 K, Liquid	507.28
523.15 K, Liquid	507.22
524.15 K, Liquid	507.46
525 K, Liquid	507.46
525.15 K, Liquid	506.85
526.15 K, Liquid	507.2
527.15 K, Liquid	506.47
528.15 K, Liquid	505.89
529.15 K, Liquid	506.19
530 K, Liquid	507.69
530.15 K, Liquid	507.15
531.15 K, Liquid	507.89
532.15 K, Liquid	508.08
533.15 K, Liquid	508.54
534.15 K, Liquid	508.66
535 K, Liquid	507.93
535.15 K, Liquid	508.27
536.15 K, Liquid	508.3
537.15 K, Liquid	508.67
538.15 K, Liquid	508.45
539.15 K, Liquid	508.21
540 K, Liquid	508.16
540.15 K, Liquid	508.39
541.15 K, Liquid	508.54
542.15 K, Liquid	508.33
543.15 K, Liquid	508.45
